According to patent publication US11878045B2, “Inducing cell death by hyperactivation of motility networks” (The Johns Hopkins University, priority 2016, dated 2024):
“Also recorded” adds a separate entry of the source.

Key:
[1] = test system: Dictyostelium pten− cells; conditions: for cytotoxicity for Dictyostelium pten− cells: 5 μM statin, three day period (17, 41, 65 hours); for time after drug treatment at which cell death started to occur: pten− cells; for growth of pten− cells compared to DMSO control: three day period
Description: Cells were treated with 5 μM fluvastatin or DMSO. Images were taken 17 hours (left), 41 hours (middle), and 65 hours (right) after drug treatment.
Seven statins currently available on the market were tested for cytotoxicity on pten− cells. The graph quantifies growth of cells treated with 5 μM of statins or DMSO control over a three day period. Blue, orange, and yellow bars represent relative cell counts 17 hours, 41 hours, and 65 hours after drug treatment.
Statins are inhibitors of HMG-CoA reductase, the rate-controlling enzyme of the mevalonate pathway.

[2] = test system: Dictyostelium pten− cells; assay: Phenotypic screen of the Johns Hopkins drug library on growth of pten− cells; format: cell-based; conditions: hits validated independently with purchased compounds
Text: (§1) FIG. 7 is a diagram showing the process of drug library screen. […] Secondary screen confirmed nine compounds with effects selective for pten− but not wild-type cells.
(§2) The John Hopkins Drug Library contains 2560 drugs that are either FDA approved, have been proven in other countries for treating human diseases, or have entered phase II clinical trials. […] These compounds fell into several classes: certain phenothiazines (promazine, chlorpromazine, and thioridazine), certain antibiotics (polymyxin and chloroxine), certain statins (fluvastatin and pitavastatin), and others (benfluorex and phenazopyridine). All of the hits were validated independently with purchased compounds and repeating the experiments.

wild type cells [3] = assay: Phenotypic screen of the Johns Hopkins drug library, wild-type counter-screen; format: cell-based, Dictyostelium; conditions: library screen hits
Text: as §1, §2

wild type cells [4] = assay: Statin growth test on wild type cells; format: cell-based, Dictyostelium
Description: Cells were treated with 5 μM fluvastatin or DMSO.

[5] = test system: MCF-10A with homozygous pten deletion (pten−/−); assay: Growth of mammary epithelial cells with homozygous pten deletion under compound treatment; format: cell-based, human; conditions: 5 μM
Description: (§3) MCF-10A or pten−/− cells were treated with DMSO control or 5 μM pitavastatin. Upper and lower panels show 44 hours and 68 hours after drug treatment.
(§4) Cells were treated with DMSO control or 5 μM drugs. Blue, orange, and yellow bars represent 20 hours, 44 hours, and 68 hours after drug treatment.
(§5) To test whether the hits from the drug screen targeted human pre-metastatic cells, the growth of the human mammary epithelial cell lines MCF-10A, MCF-10A with homozygous pten deletion (pten−/−), or MCF10-A harboring oncogenic PIK3CA mutations under compound treatment were measured.

[6] = test system: MCF10-A harboring oncogenic PIK3CA mutations; assay: Growth of mammary epithelial cells with oncogenic PIK3CA mutations under compound treatment; format: cell-based, human; conditions: 5 μM
Description: as §5

MCF-10A cells = assay: Growth of parental mammary epithelial cells under compound treatment; format: cell-based, human; conditions: 5 μM
Description: as §3, §4, §5

pten−/− cells = assay: Add-back experiments (MVA, GGPP, cholesterol) with pitavastatin; format: cell-based, human

Row | Molecule | cytotoxicity for Dictyostelium pten− cells [1] | effect on growth or survival of pten− cells in the library screen [2] | effect on morphology and growth of wild type cells (wild type cells [3]) | also measured
1 | CC(C)c1c(C(=O)Nc2ccccc2)c(-c2ccccc2)c(-c2ccc(F)cc2)n1CC[C@@H](O)C[C@@H](O)CC(=O)O [atorvastatin] | well tolerated | – | – | –
2 | CC(Cc1cccc(C(F)(F)F)c1)NCCOC(=O)c1ccccc1 (stereo not drawn) [benfluorex] | – | selectively slow down the growth of or kill pten− cells | little or no effect | –
3 | Oc1c(Cl)cc(Cl)c2cccnc12 [chloroxine] | – | selectively slow down the growth of or kill pten− cells | little or no effect | –
4 | CN(C)CCCN1c2ccccc2Sc2ccc(Cl)cc21 [chlorpromazine] | – | selectively slow down the growth of or kill pten− cells | little or no effect | –
5 | CC(C)n1c(/C=C/C(O)CC(O)CC(=O)O)c(-c2ccc(F)cc2)c2ccccc21 (stereo not drawn) [fluvastatin] | high cytotoxicity; also recorded: higher efficacy compared to all other statins | selectively slow down the growth of or kill pten− cells | little or no effect | growth and survival of Dictyostelium pten− cells (FIG. 8) ([1]; 5 μM, images 17, 41 and 65 hours after treatment): selectively affected the growth and survival; time after drug treatment at which cell death started to occur [1]: around 40 hours; growth of pten− cells compared to DMSO control [1]: grew much slower; growth of wild type cells treated with the statins (wild type cells [4]): no significant growth defect
6 | CC[C@H](C)C(=O)O[C@H]1C[C@@H](C)C=C2C=C[C@H](C)[C@H](CC[C@@H]3C[C@@H](O)CC(=O)O3)[C@H]21 [lovastatin] | well tolerated | – | – | –
7 | Nc1ccc(/N=N/c2ccccc2)c(N)n1 [phenazopyridine] | – | selectively slow down the growth of or kill pten− cells | little or no effect | –
8 | O=C(O)C[C@H](O)C[C@H](O)/C=C/c1c(C2CC2)nc2ccccc2c1-c1ccc(F)cc1 [pitavastatin] | high cytotoxicity; also recorded: higher efficacy compared to all other statins | selectively slow down the growth of or kill pten− cells | little or no effect | time after drug treatment at which cell death started to occur [1]: around 40 hours; growth of pten− cells compared to DMSO control [1]: grew much slower; growth of wild type cells treated with the statins (wild type cells [4]): no significant growth defect; cell growth of MCF-10A pten−/− cells ([5]; 20, 44, 68 hours): selectively inhibited the growth and survival; also recorded: marked reduction in cell growth; cell death in MCF-10A pten−/− cells ([5]; 44 and 68 hours): cell death induced; also recorded: extensive cell death; cell death in PIK3CA knock-in cells [6]: extensive cell death; cell growth of PIK3CA knock-in cells [6]: marked reduction in cell growth; reduction in cell growth and cell death in parental MCF-10A cells (MCF-10A cells): not MCF-10A cells; effects of pitavastatin with supplementation of cholesterol (pten−/− cells): not cholesterol; effects of pitavastatin with supplementation of GGPP (pten−/− cells; increasing doses of pitavastatin, with or without GGPP): blocked the toxic effects; also recorded: completely blocked; effects of pitavastatin with supplementation of mevalonic acid (MVA) (pten−/− cells; increasing doses of pitavastatin, with or without MVA): blocked the toxic effects; also recorded: completely blocked
9 | CC[C@H](C)C(=O)O[C@H]1C[C@H](O)C=C2C=C[C@H](C)[C@H](CC[C@@H](O)C[C@@H](O)CC(=O)O)[C@H]21 [pravastatin] | well tolerated | – | – | –
10 | CN(C)CCCN1c2ccccc2Sc2ccccc21 [promazine] | – | selectively slow down the growth of or kill pten− cells | little or no effect | –
11 | CC(C)c1nc(N(C)S(C)(=O)=O)nc(-c2ccc(F)cc2)c1/C=C/[C@@H](O)C[C@@H](O)CC(=O)O [rosuvastatin] | well tolerated | – | – | –
12 | CSc1ccc2c(c1)N(CCC1CCCCN1C)c1ccccc1S2 (stereo not drawn) [thioridazine] | – | selectively slow down the growth of or kill pten− cells | little or no effect | –
13 | polymyxin | – | selectively slow down the growth of or kill pten− cells | little or no effect | –
